Measurements from patent US20070232575A1, “Treatment of Pulmonary Artery Hypertension with Dhea, Dheas, Dhea Analogs, or Dhea Derivatives” (priority 2004, published 2007).
“Also recorded” adds a separate entry of the source.

Experiments:
BKCa = experiment: Immunoblot of BKCa in arterial pulmonary extracts; assay type: in vivo, rat; conditions: oral DHEA 3 weeks
Experimental: The level of expression of BKCa was examined using an immunoblot. Arterial pulmonary extracts were prepared from a pool of eight rats per sample and condition. Three separate samples were taken for each condition. The samples were ground in liquid N2, homogenized in RIPA buffer (1% Nonidet P-40/0.5% deoxycholate sodium/0.1% SDS/10 μg/ml aprotinin/100 μg/ml leupeptin/1 mM 4-(2-aminoethyl)benzenesulfonylfluoride in PBS) with a polytron (Bioblock Scientific), and then centrifuged. The extract was verified by Coomassie blue staining. Each sample was loaded at 10 μg in 7.5% resolving acrylamide gel and electrotransferred on to a nylon membrane. Immunoblot analyses used rabbit mAb against rat BKCa (Alomone Labs, Jerusalem, no. APC-021 at 1/500) and mouse monoclonal anti-actin (Santa Cruz Biotechnology, clone C-2 at 1/500). […] All experiments were repeated two or three times. Quantification of the data was performed using the SCION IMAGE program from the National Institutes of Health.

PASMCs = experiment: Resting [Ca2+]i of PASMCs from orally DHEA-treated CH rats (indo-1); assay type: in vivo, rat; conditions: for effect on [Ca2+]i of PASMCs: CH rats
Experimental: (§1) The heart and lungs were removed and intrapulmonary arteries (IPAs) (150-300 μm of internal diameter) were then dissected. The adventitial and intimal layers were removed. For contraction experiments, rings (3 mm in length) were prepared.
As mentioned earlier, Ca^2+ is thought to play an important role in the response to chronic hypoxia. To measure the effects of DHEA on [Ca^2+]i of individual PASMCs, a [Ca^2+]i-sensitive fluorophore, indo-1 (Calbiochem, San Diego, Calif.), was employed. PASMCs were loaded with indo-1 by incubation in physiological salt solution (139.6 mM NaCl/6.2 mM KCl/1 mM MgCl2/12.1 mM glucose/10 mM Hepes) containing 1 μM indo-1 penta-acetoxymethyl ester (Indo-1 a.m.) for 25 minutes at room temperature. The recording system included a Nikon Diaphot inverted microscope fitted with epifluorescence. The studied cell was illuminated at 360 nm and counted simultaneously at 405 nm and 480 nm by two photomultipliers (P100, Nikon). […] [Ca^2+]i was estimated from the 405:480 ratio (Bonnet, S., et al. (2001) Am. J. Physiol. 281, L193-L201).

PASMCs from CH rats = experiment: In vitro DHEA treatment of PASMCs, resting [Ca2+]i, with K channel blockers and pathway inhibitors; assay type: cell-based, rat
Experimental: as §1
As mentioned earlier, Ca^2+ is thought to play an important role in the response to chronic hypoxia. To measure the effects of DHEA on [Ca^2+]i of individual PASMCs, a [Ca^2+]i-sensitive fluorophore, indo-1 (Calbiochem, San Diego, Calif.), was employed. […] The recording system included a Nikon Diaphot inverted microscope fitted with epifluorescence.
To further examine how DHEA functions to decrease the [Ca^2+]i in PASMCs, the following experiment was performed.

[1] = system: chronic hypoxic-pulmonary artery hypertension (CH-PAH); experiment: Mean pulmonary arterial pressure (PAP) in chronic hypoxic (CH-PAH) rat model; assay type: in vivo
Experimental: To study the mechanisms of PAH and its possible treatments, an animal model was utilized. The placement of rats in a hypobaric chamber for 7 to 21 days induced chronic hypoxia, resulting in CH-PAH, a useful model system for studying mammalian PAH.
The rat model experiments were performed as follows. Adult male Wistar rats (220-240 g) were randomized into five groups. […] Intravascular administration was performed via the catheter inserted in the right jugular vein.

[2] = cited from earlier work

## C[C@]12CC[C@H](O)CC1=CC[C@@H]1[C@@H]2CC[C@]2(C)C(=O)CC[C@@H]12 [DHEA, dehydroepiandrosterone]
BKCa
  effect on CH-induced decrease of BKCa protein: This decrease was prevented; also recorded: up-regulation
BKCa; three separate comparisons
  immunoreactive signal of BKCa-subunit, CH-DHEA higher than CH: 48.6±5.6%
PASMCs; CH-DHEA rats (3 wk oral DHEA), CH 143±7, control 69.2±2.2
  resting [Ca2+]i value of PASMCs: 90.1 ± 3.2 nM
PASMCs; DHEA from day 15 to day 21 of chronic hypoxia, untreated 143±7
  resting [Ca2+]i value of PASMCs: 105 ± 3 nM
PASMCs; oral DHEA for 1 week
  effect on [Ca2+]i of PASMCs: significant decrease; also recorded: decrease in [Ca^2+]i
PASMCs; oral DHEA for 3 weeks
  effect on [Ca2+]i of PASMCs: significant decrease; also recorded: decrease in [Ca^2+]i
PASMCs from CH rats; DHEA 100 μM, PASMCs from normoxic, normoxic-DHEA and CH-DHEA rats
  effect on [Ca2+]i: did not alter
PASMCs from CH rats; PASMCs from CH rats, 15 minute in vitro 100 μM DHEA, before 143±7
  resting [Ca2+]i value: 82 ± 3 nM
PASMCs from CH rats; PASMCs from CH rats, in vitro DHEA 100 μM
  effect on resting [Ca2+]i: significant decrease; also recorded: decrease of the resting [Ca^2+]i
[1]; 3-week CH-DHEA treated rats
  effect of additional intravascular DHEA on PAP: did not further reduce PAP; also recorded: no effect
[1]; 3-wk CH rats, ten minutes after acute intravascular DHEA 3 mg/kg, before 34.5±1.7
  PAP: 24.4±2.5 mmHg
[1]; CH rats, intravascular, successively increasing doses up to 3 mg/kg
  dose dependence of PAP decrease: dose-dependent manner
[1]; CH rats, single intravascular dose of DHEA 3 mg/kg
  effect on PAP/PAH: significant decrease in PAP; also recorded: significantly decreased PAH
[1]; CH-DHEA rats: oral DHEA 30 mg/kg every alternate day during 3 wk hypoxia, untreated CH 34.5±1.7
  PAP: 21.7±1.1 mm Hg
[1]; CH-PAH rats, intravascular 0.03 mg/kg
  decrease of PAP: ~10%
[1]; CH-PAH rats, intravascular 0.3 mg/kg
  decrease in PAP: ~25%
[1]; CH-PAH rats, intravascular 3.0 mg/kg
  decrease in PAP: ~45%
[1]; after 1 or 2 wk of hypoxia exposure with oral DHEA
  PAP, CH-DHEA vs control rats: no difference
[1]; control animals
  effect of intravascular DHEA on PAP: no effect
[1]; hypertensive CH rats, 1-wk oral DHEA 30 mg/kg every alternate day
  effect on PAP/PAH (reversal): partially but significantly reversed; also recorded: significantly decreased PAH
[1]; oral DHEA for 3 weeks during chronic hypoxia, vs CH rats
  effect on PAP (prevention): significant preventive effect; also recorded: decreased; also recorded: almost entirely prevent
[1]; oral DHEA, normoxic rats
  effect on PAP: no effect
[1]; rats 3 weeks in CH, oral DHEA during the last week, no DHEA 35.9±1.9
  PAP: 21±1.1 mm Hg
[2]; Baulieu et al. 2000
  toxicity in short- and long-term human studies: without major toxicity
[2]; Tummala & Svec 1999
  safety of large amounts in human patients: safely administered
